From ChEMBL document CHEMBL1148439, “A phenylnorstatine inhibitor binding to HIV-1 protease: geometry, protonation, and subsite-pocket interactions analyzed at atomic resolution” (J Med Chem, 2004)

Biological target: Human immunodeficiency virus type 1 protease (Human immunodeficiency virus 1, UniProt Q72874, V82A)
Assay: Tested for inhibitor binding of Val82Ala mutant of HIV PR
Design: species or system human immunodeficiency virus type1

NC(=O)[C@H](CCC(=O)O)NC(=O)[C@H](CCC(=O)O)NC(=O)[C@H](Cc1ccccc1)NC(=O)[C@H](O)[C@H](Cc1ccccc1)NC(=O)OCc1ccccc1
Ki: 0.11 nM
